In patent US20210346354A1, “MACROPINOCYTOSIS IN CANCER” (Memorial Sloan-Kettering Cancer Center, priority 2015, published 2021):

Legend:
Assay type in all cases: cell-based, mouse
[1] = system: Ulk1/2 DKO MEFs expressing K-Ras^G12V; assay: Proliferation of Ulk1/2 DKO MEFs expressing K-Ras^G12V; settings: leucine-free medium containing 3% albumin; 250 nM torin 1
Experimental: (§1) K-Ras^G12D MEFs were pre-treated for 1 h with 250 nM torin 1 and then incubated with fluorescently labeled dextran or albumin. Intracellular dextran or albumin was quantified after 30 min uptake. Data are represented as mean±STDEV (n=6 fields of view with >10 cells each). P-values were calculated using a two-tailed unpaired t-test. n.s. not significant. […] Uptake of fluorescently labeled dextran was quantified after 30 min uptake. Data are represented as mean±STDEV (n=8 fields of view with >10 cells each). P-values were calculated using a two-tailed unpaired t-test. n.s. not significant. […] K-Ras^G12D MEFs were pre-treated for 1 h with 250 nM torin 1, then incubated with fluorescently labeled dextran for indicated periods of time. Data are represented as mean±STDEV (n=8 fields of view with >10 cells each). […] Mean fluorescence intensity per cell was determined after 6 h of DQ-BSA uptake. Data are represented as mean±STDEV (n=7 fields of view with >15 cells each). P-values were calculated using a two-tailed unpaired t-test. ***p<0.001, n.s. not significant. […] DQ-BSA fluorescence intensity is represented as mean±STDEV (n=7 fields of view with >20 cells each). P-values were calculated using a two-tailed unpaired t-test. ***p<0.001. […] DQ-BSA fluorescence intensity is represented as mean±STDEV (n=6 fields of view with >30 cells each). P-values were calculated using a two-tailed unpaired t-test. […]

K-Ras^G12D MEFs [2] = assay: Uptake of fluorescently labeled dextran or albumin; settings: pre-treated 1 h with 250 nM torin 1; 30 min uptake
Experimental: (§2) To characterize how cells derive leucine from extracellular proteins, cellular albumin uptake was investigated using constitutively fluorescent albumin and intracellular albumin proteolysis using a self-quenched albumin that emits fluorescence upon degradation (DQ-BSA) (Reis et al., 1998). […] It was then determined whether lysosomal albumin degradation was required to support growth during leucine starvation. […] Ras GTPases can promote cellular uptake of macromolecules through macropinocytosis (Bar-Sagi and Feramisco, 1986). […] To investigate whether this endocytic pathway contributed to albumin-dependent growth, cells were treated with the Na^+/H^+ exchange inhibitor EIPA, which blocks macropinocytosis but not other endocytic pathways (West et al., 1989).
(§3) To distinguish these possibilities, it was first tested whether mTORC1 inhibition increased internalization of extracellular macromolecules. […] It was next examined whether mTORC1 inhibition affected lysosomal degradation of internalized proteins.

mTORC1 = mTORC1 re-activation after 1 h EAA starvation, Western blotting against phosphorylated S6K1; settings: wild type and K-Ras^G12D MEFs; EAA-free medium with 1-3% albumin; 500 nM torin 1 added at onset of EAA starvation
Experimental: Cells were rinsed with ice-cold PBS and detached from culture plates by incubation with ice-cold trypsin (0.05%). Trypsin was inactivated with ice-cold serum, cells pelleted and rinsed with ice cold PBS. Cells were lysed in ice-cold lysis buffer [50 mM HEPES, pH 7.4, 40 mM […], 2 mM EDTA, 1 mM Na Orthovandanate, 50 mM NaF, 10 mM Na Pyrophosphate, 10 mM Na Glycerophosphate, 1% Triton X-100, 1×Halt protease and phosphatase inhibitor cocktails (Thermo Scientific)] for 15 min, and soluble lysate fractions isolated by centrifugation at 16,000 g for 10 min. Protein concentrations were determined with the Pierce BCA Protein Assay (Thermo Scientific) and equal amounts of proteins analyzed by SDS gel electrophoresis and Western blotting following standard protocols.
Cell culture experiments were performed at 37° C. and 5% CO2 in DMEM/F12 with 10% dialyzed FBS (molecular weight cut-off 10,000; Gemini Biosystems), 100 U/mL penicillin, 100 μg/mL streptomycin, 5 mM glucose and 2 mM glutamine. For proliferation assays, MEFs were plated in complete medium, 5 h later briefly rinsed and then cultured in starvation medium as indicated. For EAA titration experiments, EAAs were supplemented at indicated percentages of 1×MEM amino acid solution (M5550, Sigma). Cancer cell lines were cultured in complete medium for 1 day prior to starvation. Numbers of adherent cells, which are >95% viable as assessed by Trypan Blue exclusion were determined using a Multisizer 4 Coulter Counter (Beckman). For mTOR activation and localization experiments, cells were rinsed and then incubated in EAA starvation medium (DMEM/F12 lacking all amino acids except glutamine) for 1 h, and subsequently placed in medium supplemented with EAAs (1×MEM amino acid solution), albumin (3%, if not stated otherwise) or fresh EAA-free starvation medium for indicated periods of time.
Cells can sense EAAs through the mTORC1 pathway, which integrates amino acid levels with inputs from growth factor signaling to promote cell growth (Ma and Blenis, 2009; Shimobayashi and Hall, 2014). When cells are placed in EAA-free medium, the ability of mTORC1 to phosphorylate downstream targets is repressed. To test if catabolism of extracellularly provided proteins could restore mTORC1 activity in the absence of EAAs, mTORC1 was inactivated by subjecting MEFs to 1 h EAA starvation. Fresh medium containing EAAs or different concentrations of albumin was then added and mTORC1 re-activation assessed by Western blotting against phosphorylated S6K1.

wild type MEFs = assay: Lysosomal degradation of DQ-BSA in wild type MEFs; settings: 250 nM torin 1; 6 h DQ-BSA uptake
Experimental: (§4) For live imaging, medium was supplemented with 0.3 mg/ml DQ Green BSA. 1 h prior to imaging, 50 nM LysoTracker Red and 0.2 μg/ml Hoechst were added. Cells were imaged either immediately after addition of DQ-BSA and torin 1, or after 5-6 h incubation using a Zeiss LSM 5 LIVE.
To further investigate how Ras and mTORC1 signaling regulated lysosomal proteolysis of internalized proteins, the effects of mTORC1 inhibition and K-Ras activation were compared. […] Thus, K-Ras enhances a cell's ability to take up and degrade extracellular proteins. In contrast, whereas mTORC1 specifically restricts their lysosomal degradation.

K-Ras^G12D MEFs [3] = assay: Lysosomal degradation of DQ-BSA (fluorescence dequenching) in K-Ras^G12D MEFs
Experimental: as §4, §2, §3

[4] = system: Ulk1/2 wild type and DKO MEFs expressing K-Ras^G12V; assay: DQ-BSA proteolysis in Ulk1/2 wild type and DKO MEFs expressing K-Ras^G12V; settings: 250 nM torin 1; Ulk1/2 wild type versus DKO
Experimental: as §1

CCC(=O)N1CCN(c2ccc(-n3c(=O)ccc4cnc5ccc(-c6cnc7ccccc7c6)cc5c43)cc2C(F)(F)F)CC1 [torin 1]
cell proliferation [1]: enhanced proliferation | cellular uptake of fluorescently labeled dextran or albumin (K-Ras^G12D MEFs [2]): neither torin 1 nor Raptor knockdown elevated cellular uptake | albumin-induced S6K1 phosphorylation (mTORC1): completely suppressed | DQ-BSA fluorescence (wild type MEFs): significant increase | DQ-BSA proteolysis, torin 1 combined with constitutive K-Ras activation (K-Ras^G12D MEFs [3]; 250 nM torin 1, 6 h DQ-BSA uptake, versus either manipulation alone): almost four times more than either manipulation alone | fluorescence dequenching of DQ-BSA (K-Ras^G12D MEFs [3]; 250 nM torin 1, followed over time): dramatic increase | rate of DQ-BSA degradation after torin 1 pre-treatment (K-Ras^G12D MEFs [3]; pre-treating with 250 nM torin 1 for 6 h or 16 h): did not increase the rate of DQ-BSA degradation | DQ-BSA proteolysis in response to torin 1 [4]: comparable increase in DQ-BSA proteolysis
